Test results: ChEMBL document CHEMBL3044611, “Synthesis of novel Hantzsch dihydropyridines and Biginelli dihydropyrimidines of biological interest: a 3D-QSAR study on their cytotoxicity” (Med Chem Res, 2010)
Values after ≈ are worked out from the molar mass of the structure shown. Active and inactive are the calls of the source. The calls are words filed in the database; no cut-off is given here.

Assays:
Vero = assay: (§1) Cytotoxicity against Chlorocebus aethiops (African green monkey) Vero cells assessed as cell viability after 3 days by SRB assay; type: cell-based; conditions: chlorocebus sabaeus, vero, 72 h
[1] = as §1; type: cell-based; conditions: chlorocebus sabaeus, Vero cells
Bacillus subtilis = assay: Antibacterial activity against Bacillus subtilis at 50 ug/well after 24 hr by agar well diffusion method; type: functional, organism-based
Staphylococcus aureus = assay: Antibacterial activity against Staphylococcus aureus at 50 ug/well after 24 hr by agar well diffusion method; type: functional, organism-based

SMILES	pCC50 (Vero)	CC50 at 72 h [1] [µg/mL]	Activity (Bacillus subtilis)	Activity (Staphylococcus aureus)
COc1ccc(NC(=O)C2=C(C)NC(=S)NC2c2ccc(N(C)C)cc2)cc1 (stereo not given)	-0.101	500 (≈ 1260 µM)	inactive	inactive
COc1ccc(NC(=O)C2=C(C)NC(=S)NC2c2ccco2)cc1 (stereo not given)	0.173	230 (≈ 670 µM)	inactive	inactive
COc1ccc(NC(=O)C2=C(C)NC(=O)NC2c2ccncc2)cc1 (stereo not given)	1.529	10 (≈ 29.6 µM)	inactive	inactive
CC1=C(C(=O)Nc2ccc(Cl)cc2)C(/C=C/c2ccccc2)C(C(=O)Nc2ccc(Cl)cc2)=C(C)N1	1.392	21 (≈ 40.5 µM)	inactive	inactive
CC1=C(C(=O)Nc2ccc(Cl)cc2)C(c2ccc(N(C)C)cc2)C(C(=O)Nc2ccc(Cl)cc2)=C(C)N1	0.538	155 (≈ 289 µM)	inactive	inactive
COc1ccc(NC(=O)C2=C(C)NC(=O)NC2c2ccc(O)c(OC)c2)cc1 (stereo not given)	1.68	8 (≈ 20.9 µM)	inactive	inactive
COc1ccc(NC(=O)C2=C(C)NC(=O)NC2c2ccc(N(C)C)cc2)cc1 (stereo not given)	0.207	236 (≈ 620 µM)	inactive	inactive
COc1ccc(NC(=O)C2=C(C)NC(=O)NC2c2ccc(OC)cc2)cc1 (stereo not given)	0.367	158 (≈ 430 µM)	inactive	inactive
COc1ccc(NC(=O)C2=C(C)NC(=O)NC2)cc1	0.116	200 (≈ 765 µM)	inactive	inactive
COc1ccc(NC(=O)C2=C(C)NC(=S)NC2c2cccc([N+](=O)[O-])c2)cc1 (stereo not given)	0.697	80 (≈ 201 µM)	inactive	inactive
COc1ccc(NC(=O)C2=C(C)NC(=S)NC2c2ccccc2)cc1 (stereo not given)	1.371	15 (≈ 42.4 µM)	inactive	inactive
COc1ccc(NC(=O)C2=C(C)NC(=O)NC2/C=C/c2ccccc2)cc1 (stereo not given)	1.383	15 (≈ 41.3 µM)	inactive	inactive
COc1cc(C2C(C(=O)Nc3ccc(Cl)cc3)=C(C)NC(C)=C2C(=O)Nc2ccc(Cl)cc2)ccc1O	0.333	250 (≈ 464 µM)	inactive	inactive
COc1ccc(C2C(C(=O)Nc3ccc(Cl)cc3)=C(C)NC(C)=C2C(=O)Nc2ccc(Cl)cc2)cc1	1.42	20 (≈ 38.3 µM)	inactive	inactive
CC1=C(C(=O)Nc2ccc(Cl)cc2)C(c2cccc([N+](=O)[O-])c2)C(C(=O)Nc2ccc(Cl)cc2)=C(C)N1	1.315	26 (≈ 48.4 µM)	inactive	inactive
CC1=C(C(=O)Nc2ccc(Cl)cc2)C(c2ccccc2O)C(C(=O)Nc2ccc(Cl)cc2)=C(C)N1	0.913	62 (≈ 122 µM)	inactive	inactive
COc1ccc(NC(=O)C2=C(C)NC(=S)NC2c2ccccc2O)cc1 (stereo not given)	0.176	246 (≈ 666 µM)	inactive	inactive
CC1=C(C(=O)Nc2ccc(Cl)cc2)C(c2ccccc2)C(C(=O)Nc2ccc(Cl)cc2)=C(C)N1	1.516	15 (≈ 30.5 µM)	inactive	inactive
COc1ccc(NC(=O)C2=C(C)NC(=O)NC2c2ccccc2)cc1 (stereo not given)	0.176	225 (≈ 667 µM)	inactive	inactive
COc1ccc(NC(=O)C2=C(C)NC(=O)NC2c2ccco2)cc1 (stereo not given)	0.192	210 (≈ 642 µM)	inactive	inactive
COc1ccc(NC(=O)C2=C(C)NC(=O)NC2c2cccc([N+](=O)[O-])c2)cc1 (stereo not given)	0.776	64 (≈ 167 µM)	inactive	inactive
COc1ccc(NC(=O)C2=C(C)NC(=O)NC2c2cccc(Cl)c2)cc1 (stereo not given)	0.164	254 (≈ 683 µM)	inactive	inactive
CC1=C(C(=O)Nc2ccc(Cl)cc2)CC(C(=O)Nc2ccc(Cl)cc2)=C(C)N1	1.017	40 (≈ 96.1 µM)	inactive	inactive
CC1=C(C(=O)Nc2ccc(Cl)cc2)C(c2cccc(Cl)c2)C(C(=O)Nc2ccc(Cl)cc2)=C(C)N1	1.642	12 (≈ 22.8 µM)	inactive	inactive
CC1=C(C(=O)Nc2ccc(Cl)cc2)C(c2ccco2)C(C(=O)Nc2ccc(Cl)cc2)=C(C)N1	1.302	24 (≈ 49.8 µM)	inactive	inactive
COc1ccc(NC(=O)C2=C(C)NC(=S)NC2c2cccc(Cl)c2)cc1 (stereo not given)	0.157	270 (≈ 696 µM)	inactive	inactive
CC1=C(C(=O)Nc2ccc(Cl)cc2)C(c2ccncc2)C(C(=O)Nc2ccc(Cl)cc2)=C(C)N1	0.8	78 (≈ 158 µM)	inactive	inactive
COc1ccc(NC(=O)C2=C(C)NC(=S)NC2c2ccc(OC)cc2)cc1 (stereo not given)	0.408	150 (≈ 391 µM)	inactive	inactive
COc1ccc(NC(=O)C2=C(C)NC(=O)NC2c2ccccc2O)cc1 (stereo not given)	0.343	160 (≈ 453 µM)	inactive	inactive
COc1ccc(NC(=O)C2=C(C)N=C(S)NC2c2ccc(O)c(OC)c2)cc1 (stereo not given)	1.698	8 (≈ 20 µM)	inactive	inactive
